Measurements taken from patent US9211310B2, “Use of a Chinese medicine composition in preparing medicaments for treating secondary prevention of myocardial infarction” (TASLY PHARMACEUTICAL GROUP CO., LTD, priority 2010, dated 2015).

Test system: patients after acute myocardial infarction
Assay: TCM symptom score, total and single (chest pain, chest tightness, short breath, fatigue, palpitation, spontaneous perspiration, pale complexion), same clinical trial
Format: in vivo, human
Design: total score of TCM symptom, Mean / total score of TCM symptom, Min / total score of TCM symptom, Max / total score of TCM symptom, Md / change of total score of TCM symptom, Mean / change of total score of TCM symptom, Max / change of total score of TCM symptom, Md: scale not given here
Conditions: PP
Excerpt: 3508 patients who were in accordance with the diagnostic standards of AMI for 28 days to 2 years and differentiated as Qi deficiency and blood stagnation syndrome by TCM were studied. 0.5 g Chinese medicine composition prepared by the method of EXAMPLE 1 (Coded as QSYQ) was administrated half an hour after meal, 3 times per day.
They included the overall survival time, angina pectoris score, TCM symptom score and life quality score, where angina pectoris score, TCM symptom score and life quality score were evaluated at randomization, in 1st, 3rd, 6th, 9th, 12th month after treatment and 18th month after follow-up.
The analysis method referred to the angina pectoris score.

[1] = 6 months after treatment-baseline
[2] = 9 months after treatment-baseline

CC(=O)Oc1ccccc1C(=O)O [Control group, aspirine]
change of spontaneous perspiration 0, number of patients [1]: 774
change of spontaneous perspiration 0, percent of patients [1]: (54.32%)
change of spontaneous perspiration 1, number of patients [1]: 414
change of spontaneous perspiration 1, percent of patients [1]: (29.05%)
change of spontaneous perspiration 2, number of patients [1]: 88
change of spontaneous perspiration 2, percent of patients [1]: (6.18%)
change of spontaneous perspiration 3, number of patients [1]: 24
change of spontaneous perspiration 3, percent of patients [1]: (1.68%)
change of spontaneous perspiration −1, number of patients [1]: 105
change of spontaneous perspiration −1, percent of patients [1]: (7.37%)
change of spontaneous perspiration −2, number of patients [1]: 20
change of spontaneous perspiration −2, percent of patients [1]: (1.40%)
change of spontaneous perspiration −3, number of patients [1]: 0
change of spontaneous perspiration −3, percent of patients [1]: (0.00%)
change of total score of TCM symptom, Max [1]: 19.00
change of total score of TCM symptom, Md [1]: −3.00
change of total score of TCM symptom, Mean [1]: −4.11
change of total score of TCM symptom, Min [1]: −28.00
distribution of total score of TCM symptom: Medium, number of patients (9 months after treatment): 323
distribution of total score of TCM symptom: Medium, percentage of patients (9 months after treatment): (22.84%)
distribution of total score of TCM symptom: Mild, number of patients (9 months after treatment): 1088
distribution of total score of TCM symptom: Mild, percentage of patients (9 months after treatment): (76.94%)
distribution of total score of TCM symptom: Severe, number of patients (9 months after treatment): 3
distribution of total score of TCM symptom: Severe, percentage of patients (9 months after treatment): (0.21%)
fatigue score 0, % of patients (9 months after treatment): (35.22%)
fatigue score 0, number of patients (9 months after treatment): 498
fatigue score 2, % of patients (9 months after treatment): (60.61%)
fatigue score 2, number of patients (9 months after treatment): 857
fatigue score 4, % of patients (9 months after treatment): (3.47%)
fatigue score 4, number of patients (9 months after treatment): 49
fatigue score 6, % of patients (9 months after treatment): (0.71%)
fatigue score 6, number of patients (9 months after treatment): 10
pale complexion score 0, number of patients (9 months after treatment): 788
pale complexion score 0, percent of patients (9 months after treatment): (55.69%)
pale complexion score 1, number of patients (9 months after treatment): 520
pale complexion score 1, percent of patients (9 months after treatment): (36.75%)
pale complexion score 2, number of patients (9 months after treatment): 101
pale complexion score 2, percent of patients (9 months after treatment): (7.14%)
pale complexion score 3, number of patients (9 months after treatment): 6
pale complexion score 3, percent of patients (9 months after treatment): (0.42%)
palpitation score 0, number of patients (9 months after treatment): 496
palpitation score 0, percent of patients (9 months after treatment): (35.05%)
palpitation score 2, number of patients (9 months after treatment): 782
palpitation score 2, percent of patients (9 months after treatment): (55.27%)
palpitation score 4, number of patients (9 months after treatment): 122
palpitation score 4, percent of patients (9 months after treatment): (8.62%)
palpitation score 6, number of patients (9 months after treatment): 15
palpitation score 6, percent of patients (9 months after treatment): (1.06%)
short breath score 0, % of patients (9 months after treatment): (29.42%)
short breath score 0, number of patients (9 months after treatment): 416
short breath score 3, % of patients (9 months after treatment): (58.27%)
short breath score 3, number of patients (9 months after treatment): 824
short breath score 6, % of patients (9 months after treatment): (11.95%)
short breath score 6, number of patients (9 months after treatment): 169
short breath score 9, % of patients (9 months after treatment): (0.35%)
short breath score 9, number of patients (9 months after treatment): 5
spontaneous perspiration score 0, number of patients (9 months after treatment): 678
spontaneous perspiration score 0, percent of patients (9 months after treatment): (47.95%)
spontaneous perspiration score 1, number of patients (9 months after treatment): 652
spontaneous perspiration score 1, percent of patients (9 months after treatment): (46.11%)
spontaneous perspiration score 2, number of patients (9 months after treatment): 79
spontaneous perspiration score 2, percent of patients (9 months after treatment): (5.59%)
spontaneous perspiration score 3, number of patients (9 months after treatment): 5
spontaneous perspiration score 3, percent of patients (9 months after treatment): (0.35%)
total score of TCM symptom, Max (9 months after treatment): 37.00
total score of TCM symptom, Md (9 months after treatment): 8.00
total score of TCM symptom, Mean (9 months after treatment): 8.88
total score of TCM symptom, Min (9 months after treatment): 0.00
change of fatigue 0, % of patients [2]: (48.12%)
change of fatigue 0, number of patients [2]: 679
change of fatigue 2, % of patients [2]: (35.65%)
change of fatigue 2, number of patients [2]: 503
change of fatigue 4, % of patients [2]: (7.94%)
change of fatigue 4, number of patients [2]: 112
change of fatigue 6, % of patients [2]: (1.28%)
change of fatigue 6, number of patients [2]: 18
change of fatigue −2, % of patients [2]: (6.52%)
change of fatigue −2, number of patients [2]: 92
change of fatigue −4, % of patients [2]: (0.50%)
change of fatigue −4, number of patients [2]: 7
change of fatigue −6, % of patients [2]: (0.00%)
change of fatigue −6, number of patients [2]: 0
change of pale complexion 0, number of patients [2]: 1049
change of pale complexion 0, percent of patients [2]: (74.66%)
change of pale complexion 1, number of patients [2]: 316
change of pale complexion 1, percent of patients [2]: (22.49%)
change of pale complexion −1, number of patients [2]: 40
change of pale complexion −1, percent of patients [2]: (2.85%)
change of palpitation 0, number of patients [2]: 749
change of palpitation 0, percent of patients [2]: (53.12%)
change of palpitation 1, number of patients [2]: 493
change of palpitation 1, percent of patients [2]: (34.96%)
change of palpitation 2, number of patients [2]: 71
change of palpitation 2, percent of patients [2]: (5.04%)
change of palpitation 3, number of patients [2]: 6
change of palpitation 3, percent of patients [2]: (0.43%)
change of palpitation −1, number of patients [2]: 87
change of palpitation −1, percent of patients [2]: (6.17%)
change of palpitation −2, number of patients [2]: 4
change of palpitation −2, percent of patients [2]: (0.28%)
change of short breath 0, % of patients [2]: (56.60%)
change of short breath 0, number of patients [2]: 798
change of short breath 2, % of patients [2]: (33.33%)
change of short breath 2, number of patients [2]: 470
change of short breath 4, % of patients [2]: (3.83%)
change of short breath 4, number of patients [2]: 54
change of short breath 6, % of patients [2]: (0.50%)
change of short breath 6, number of patients [2]: 7
change of short breath −2, % of patients [2]: (5.53%)
change of short breath −2, number of patients [2]: 78
change of short breath −4, % of patients [2]: (0.14%)
change of short breath −4, number of patients [2]: 2
change of short breath −6, % of patients [2]: (0.07%)
change of short breath −6, number of patients [2]: 1
change of spontaneous perspiration 0, number of patients [2]: 717
change of spontaneous perspiration 0, percent of patients [2]: (50.85%)
change of spontaneous perspiration 1, number of patients [2]: 434
change of spontaneous perspiration 1, percent of patients [2]: (30.78%)
change of spontaneous perspiration 2, number of patients [2]: 105
change of spontaneous perspiration 2, percent of patients [2]: (7.45%)
change of spontaneous perspiration 3, number of patients [2]: 26
change of spontaneous perspiration 3, percent of patients [2]: (1.84%)
change of spontaneous perspiration −1, percent of patients [2]: (8.65%)
change of spontaneous perspiration −2, number of patients [2]: 6
